Experiment: Pharmacokinetics (PK) test of immediate release formulation (capsule formulation) in human
Assay type: in vivo
Details: healthy subjects; immediate release capsules, 0.1 to 340 mg; FIG. 11
Experimental: The immediate release formulations (capsule formulations) containing 0.1 mg, 1 mg, 5 mg, 20 mg, and 80 mg of the compound A were used in combinations as needed so that the dose of compound A became 0.1 mg, 1 mg, 3 mg, 10 mg, 30 mg, 100 mg, 160 mg, 240 mg, and 340 mg.

Nc1nc(CC(=O)Nc2ccc(CCNC[C@H](O)c3ccccc3)cc2)cs1 [compound A, (R)-2-(2-aminothiazol-4-yl)-4′-[2-[(2-hydroxy-2-phenylethyl)amino]ethyl]acetic acid anilide]
relation between maximum plasma concentration (Cmax) and increase in heart rate from the base line: positive correlation

From US11707451B2, “Pharmaceutical composition for modified release” (ASTELLAS PHARMA INC., priority 2010, dated 2023)
